Experimental data as given in patent US7989474B2, “Use of Lck inhibitors for treatment of immunologic diseases” (Boehringer Ingelheim Pharma GmbH & Co. KG, priority 2002, dated 2011).

Molecular target: T1, lck enzyme (Homo sapiens, UniProt P06239)
T1 construct: The lck enzyme comprises the entire lck molecule except the first nine amino acids which are replaced by an His-tag; His-tag (N); made in house
Assay: Non-Radioactive Kinase Assay (lck)
Format: biochemical
Settings: mean values of two independent experiments
Experimental: The lck enzyme comprises the entire lck molecule except the first nine amino acids which are replaced by an His-tag for purification purposes. The enzyme is affinity purified.
The reaction is started by the addition of 50 μl 500 μM ATP (in 10 mM MgAc2) and is performed at room temperature.
The solution is incubated for one hour at room temperature and the supernatant discarded. The well is washed twice with 300 μl PBS.

T1 sequence (P06239 10-509 limits assumed, species assumed): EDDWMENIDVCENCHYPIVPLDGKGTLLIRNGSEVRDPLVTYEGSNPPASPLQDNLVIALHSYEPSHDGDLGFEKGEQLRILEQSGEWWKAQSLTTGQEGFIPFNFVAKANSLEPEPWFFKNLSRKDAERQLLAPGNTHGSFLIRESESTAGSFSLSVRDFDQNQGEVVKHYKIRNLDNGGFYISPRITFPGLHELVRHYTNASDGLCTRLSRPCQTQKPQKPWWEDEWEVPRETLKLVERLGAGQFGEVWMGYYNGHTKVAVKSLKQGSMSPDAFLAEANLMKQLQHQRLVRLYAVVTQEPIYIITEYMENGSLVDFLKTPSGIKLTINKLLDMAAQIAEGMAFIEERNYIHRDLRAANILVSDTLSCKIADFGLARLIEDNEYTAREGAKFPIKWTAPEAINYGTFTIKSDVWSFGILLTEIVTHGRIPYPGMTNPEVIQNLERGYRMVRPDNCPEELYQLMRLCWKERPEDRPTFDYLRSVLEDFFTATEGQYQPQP

IC50: 36 nM
Structure (SMILES): COC(=O)c1ccc2c(c1)NC(=O)/C2=C(\Nc1ccc(N(C)C(=O)CN(C)C)cc1)c1ccccc1 [(AI), (Z)-3-(1-(4-(N-(dimethylaminomethylcarbonyl)-N-methyl-amino)-phenylamino)-1-phenyl-methylene)-6-methoxycarbonyl-2-indolinone]
